This is an account of results in patent publication US7825118B2, “Inhibitors of bruton's tyrosine kinase” (Pharmacyclics, Inc., priority 2006, dated 2010).

One assay concerns CRL-8062. Briefly: Cytotoxicity CRL-8062. The format is cell-based. Conditions: Myeloma.
A further assay concerns BT-549. The assay can be described thus: Cytotoxicity BT-549. Conditions: Homo sapiens, Breast. Type of assay: cell-based.
In a further assay the test system is MDA-MB-468. The assay can be described thus: Cytotoxicity MDA-MB-468. The following applies: Homo sapiens, Breast. The format is cell-based.
For the next assay, the system named is DHL-6. The assay can be described thus: Cytotoxicity DHL-6. Type of assay: cell-based. Conditions: Lymphoma.
Another assay has as its system NCI-H460. Briefly: Cytotoxicity NCI-H460. Conditions: Homo sapiens, Lung. The format is cell-based.
In assay [1] the test system is Btk expressing B cell lymphoma cell lines. Briefly: Panel of nine Btk expressing B cell lymphoma cell lines. Type of assay: cell-based.
For a further assay, the system named is Mino. The assay can be described thus: Cytotoxicity Mino. Type of assay: cell-based. Conditions: Homo sapiens, Lymphoma.
The next assay relates to MDA-MB-361. Briefly: Cytotoxicity MDA-MB-361. Type of assay: cell-based. Conditions: Homo sapiens, Breast.
In a further assay the test system is DLCL2. The assay can be described thus: Cytotoxicity DLCL2. The format is cell-based. Conditions: Lymphoma.
A further assay deals with Egr-1. Briefly: Expression of ERK transcriptional target Egr-1. Type of assay: cell-based. The following applies: 1 uM.
The test system of a further assay is pERK in DOHH2 cells. Briefly: Basal pERK levels in unstimulated DOHH2 cells. The format is cell-based. Conditions: Homo sapiens, DOHH-2, read-out: decrease of pERK levels IC50. The source says: (§1) To identify biomarkers that correlate with response to Compound 4, phosphorylation events in the BCR signal transduction pathway were investigated. […].
. However, when we examined basal phosphorylation levels, we found higher basal phosphorylation in DOHH2 compared to Ramos, with phospho-ERK in particular indicating higher levels of basal or tonic signaling in DOHH2. […]

The next assay deals with Ramos. The assay can be described thus: Sensitivity of Ramos cell line. The format is cell-based, human.
Excerpt: as §1

A further assay concerns Raji. The assay can be described thus: Cytotoxicity Raji. The following applies: Homo sapiens, Lymphoma. The format is cell-based.
A further assay concerns SK-BR3. Briefly: Cytotoxicity SK-BR3. The format is cell-based. The following applies: Homo sapiens, SK-BR-3; Breast.
A further assay has as its system A549. Briefly: Cytotoxicity A549. The format is cell-based. Conditions: Homo sapiens, Lung.
Another assay deals with MDA-MB-231. The assay can be described thus: Cytotoxicity MDA-MB-231. Type of assay: cell-based. The following applies: Homo sapiens, Breast.
For a further assay, the system named is DOHH2. Briefly: Cytotoxicity DOHH2. Type of assay: cell-based. Conditions: for GI50: Homo sapiens, DOHH-2, Lymphoma.
The subject of a further assay is MDA-MB-453. The assay can be described thus: Cytotoxicity MDA-MB-453. Conditions: Homo sapiens, Breast. The format is cell-based.
In another assay the target is ITK (Homo sapiens, UniProt Q08881). Briefly: Panel of kinases: ITK. Type of assay: biochemical. The following applies: Cys: Y.
Another assay deals with JAK3 (Homo sapiens, UniProt P52333). Briefly: Panel of kinases: JAK3. The format is biochemical. The following applies: Cys: Y.
The next assay concerns the target BLK (Homo sapiens, UniProt P51451). The assay can be described thus: Panel of kinases: BLK. The format is biochemical. Conditions: Cys: Y.
A further assay deals with Btk (Homo sapiens, UniProt Q06187). Briefly: Btk acellular kinase assay (TR-FRET). Type of assay: biochemical.
The next assay relates to DHL-6 cells. Briefly: Growth of DHL-6 cells (Alamar Blue, FIG. 3). Type of assay: cell-based. The following applies: 3E4 cells/well, complete media, 0.1% DMSO. (The colour change of resazurin is a common sign of viable cells or microbes.)
The mark [2] stands for this setting: acellular TR-FRET kinase assay, ATP at Km, read-out: Btk IC50.

Like-named read-outs stand apart in the source and are kept apart here.

The term GI50 denotes the concentration at which growth is held to half of that of the control. A word on the IC50: it is the midpoint of a concentration-inhibition curve.

Chain of Btk (Q06187 whole entry): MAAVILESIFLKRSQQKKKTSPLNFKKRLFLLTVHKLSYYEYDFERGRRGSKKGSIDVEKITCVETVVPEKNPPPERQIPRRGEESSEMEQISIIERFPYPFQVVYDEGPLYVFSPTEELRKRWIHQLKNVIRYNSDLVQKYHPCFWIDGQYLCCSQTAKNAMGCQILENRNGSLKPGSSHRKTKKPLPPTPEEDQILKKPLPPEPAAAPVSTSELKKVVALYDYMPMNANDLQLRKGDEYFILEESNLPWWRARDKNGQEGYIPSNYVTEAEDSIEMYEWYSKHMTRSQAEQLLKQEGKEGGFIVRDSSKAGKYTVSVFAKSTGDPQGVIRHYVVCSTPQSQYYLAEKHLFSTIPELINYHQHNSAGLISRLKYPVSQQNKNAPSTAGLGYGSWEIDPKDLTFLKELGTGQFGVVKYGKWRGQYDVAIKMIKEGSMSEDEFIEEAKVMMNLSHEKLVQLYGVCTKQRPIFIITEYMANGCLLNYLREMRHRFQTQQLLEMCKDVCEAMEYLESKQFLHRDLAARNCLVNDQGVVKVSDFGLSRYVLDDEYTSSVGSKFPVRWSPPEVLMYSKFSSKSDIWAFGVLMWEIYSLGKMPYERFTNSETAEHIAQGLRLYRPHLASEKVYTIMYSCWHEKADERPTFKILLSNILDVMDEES
Chain of ITK (Q08881 whole entry): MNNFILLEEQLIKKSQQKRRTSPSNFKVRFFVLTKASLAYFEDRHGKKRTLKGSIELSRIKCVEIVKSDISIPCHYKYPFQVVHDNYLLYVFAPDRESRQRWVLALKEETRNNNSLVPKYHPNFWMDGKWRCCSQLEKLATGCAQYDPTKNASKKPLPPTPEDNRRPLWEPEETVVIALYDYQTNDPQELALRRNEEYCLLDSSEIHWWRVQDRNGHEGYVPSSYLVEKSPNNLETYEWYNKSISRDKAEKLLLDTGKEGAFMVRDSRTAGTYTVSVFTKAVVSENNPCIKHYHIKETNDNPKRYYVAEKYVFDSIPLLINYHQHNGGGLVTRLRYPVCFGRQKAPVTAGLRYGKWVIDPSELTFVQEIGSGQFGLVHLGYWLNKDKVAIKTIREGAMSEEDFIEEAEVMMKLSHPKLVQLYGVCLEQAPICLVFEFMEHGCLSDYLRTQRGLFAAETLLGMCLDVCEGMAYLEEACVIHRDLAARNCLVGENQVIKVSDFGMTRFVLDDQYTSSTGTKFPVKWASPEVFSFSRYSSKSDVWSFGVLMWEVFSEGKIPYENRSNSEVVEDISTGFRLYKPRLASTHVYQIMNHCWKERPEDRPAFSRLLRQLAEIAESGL
Chain of JAK3 (P52333 whole entry): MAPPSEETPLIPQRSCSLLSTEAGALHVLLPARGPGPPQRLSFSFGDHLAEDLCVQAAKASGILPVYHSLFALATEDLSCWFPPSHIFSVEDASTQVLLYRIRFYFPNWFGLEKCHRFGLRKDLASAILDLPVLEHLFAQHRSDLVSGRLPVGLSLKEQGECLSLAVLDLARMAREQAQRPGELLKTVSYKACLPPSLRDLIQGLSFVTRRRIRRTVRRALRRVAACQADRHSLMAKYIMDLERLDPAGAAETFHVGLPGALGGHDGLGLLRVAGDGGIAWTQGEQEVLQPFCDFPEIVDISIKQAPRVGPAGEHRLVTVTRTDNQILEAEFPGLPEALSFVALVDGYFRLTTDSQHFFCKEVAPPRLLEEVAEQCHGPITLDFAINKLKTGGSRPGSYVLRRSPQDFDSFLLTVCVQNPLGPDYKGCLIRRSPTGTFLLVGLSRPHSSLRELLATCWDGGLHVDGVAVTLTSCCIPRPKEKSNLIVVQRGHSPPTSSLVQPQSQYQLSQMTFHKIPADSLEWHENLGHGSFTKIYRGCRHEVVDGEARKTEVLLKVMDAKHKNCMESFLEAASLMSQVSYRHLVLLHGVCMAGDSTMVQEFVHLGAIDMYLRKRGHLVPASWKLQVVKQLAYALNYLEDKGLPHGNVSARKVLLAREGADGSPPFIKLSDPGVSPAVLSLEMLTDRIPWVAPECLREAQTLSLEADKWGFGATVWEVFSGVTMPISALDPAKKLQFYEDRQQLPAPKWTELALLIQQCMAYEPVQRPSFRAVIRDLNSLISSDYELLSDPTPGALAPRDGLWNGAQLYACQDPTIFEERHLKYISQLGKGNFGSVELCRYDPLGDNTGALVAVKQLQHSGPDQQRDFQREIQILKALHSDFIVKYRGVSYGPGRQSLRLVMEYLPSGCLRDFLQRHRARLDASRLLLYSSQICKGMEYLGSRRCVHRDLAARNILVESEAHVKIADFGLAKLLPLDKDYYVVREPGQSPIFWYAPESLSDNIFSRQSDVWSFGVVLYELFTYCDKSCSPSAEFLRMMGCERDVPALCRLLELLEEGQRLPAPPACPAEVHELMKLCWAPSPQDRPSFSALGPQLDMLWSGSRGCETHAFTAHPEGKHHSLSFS
Chain of BLK (P51451 whole entry): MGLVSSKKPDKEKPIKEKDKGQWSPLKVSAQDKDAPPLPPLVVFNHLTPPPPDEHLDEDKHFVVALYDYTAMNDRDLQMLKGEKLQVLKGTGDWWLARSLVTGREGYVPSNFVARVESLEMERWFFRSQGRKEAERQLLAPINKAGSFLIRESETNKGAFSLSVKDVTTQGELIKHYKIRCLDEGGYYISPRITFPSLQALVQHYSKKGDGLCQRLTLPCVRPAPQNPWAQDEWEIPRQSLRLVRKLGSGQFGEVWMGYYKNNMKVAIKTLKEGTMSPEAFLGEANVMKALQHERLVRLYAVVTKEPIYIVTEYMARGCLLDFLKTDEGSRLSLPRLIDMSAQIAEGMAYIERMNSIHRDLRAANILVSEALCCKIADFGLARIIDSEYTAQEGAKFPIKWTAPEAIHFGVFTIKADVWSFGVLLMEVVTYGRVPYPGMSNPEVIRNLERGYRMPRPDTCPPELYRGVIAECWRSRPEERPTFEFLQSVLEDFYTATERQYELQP

For `C=CC(=O)N1CCCC(n2nc(-c3ccc(Oc4ccccc4)cc3)c3c(N)ncnc32)C1` (centres unmarked) [Compound 4, 1-(3-(4-amino-3-(4-phenoxyphenyl)-1H-pyrazolo[3,4-d]pyrimidin-1-yl)piperidin-1-yl)prop-2-en-1-one], the GI50 in the assay on CRL-8062 was above 10 µM; with BT-549, above 10 µM; in the assay with MDA-MB-468, above 10 µM; in the assay on DHL-6 it was 0.75 µM; in the assay with NCI-H460 it was above 10 µM; in [1] (B-cell, 5 of seven lines with high basal pERK, read-out: GI50 of sensitive cell lines), below 1300 nM. Further, the GI50 in the assay on Mino was 1.9 µM; in the assay with MDA-MB-361, above 10 µM; in the assay on DLCL2 it was 1.3 µM; in the assay with Raji, above 10 µM; in the assay with SK-BR3, 0.44 µM; in the assay with A549, above 10 µM. Further, the results for the concentration for 50% growth inhibition (GI50) in the assay with MDA-MB-231, with DOHH2 and in the assay with MDA-MB-453 were above 10 µM, 0.77 µM and below 0.001 µM, respectively. For the same molecule, the “response of cell lines with low pERK levels” value in assay [1] (two cell lines with low pERK levels) is on record as “resistant”. In the assay with Egr-1, the “time within which Egr-1 expression is reduced” value is at most 1 h. For the same molecule, the concentration for half-maximal inhibition (IC50) in the assay on pERK in DOHH2 cells is below 10 nM. The “sensitivity of cell line Ramos” value in the assay with Ramos is given as “resistant”. Besides, the “sensitivity of cell line DOHH2” value with DOHH2 was “sensitive”.
For `C=CC(=O)N[C@H]1CC[C@@H](n2nc(-c3ccc(Oc4ccccc4)cc3)c3c(N)ncnc32)CC1` [Compound 10, N-((1s,4s)-4-(4-amino-3-(4-phenoxyphenyl)-1H-pyrazolo[3,4-d]pyrimidin-1-yl)cyclohexyl)acrylamide], the IC50 on ITK is 910 nM; against JAK3, 8.28 µM; against BLK, 0.17 nM. Also, the concentration for 50% growth inhibition (GI50) with CRL-8062 was above 10 µM; in the assay on BT-549, 2.79 µM; in the assay with MDA-MB-468 it was above 10 µM; with DHL-6, 0.009 µM; in the assay on NCI-H460, above 10 µM; in the assay on Mino, 0.12 µM. Further, the GI50 in the assay with MDA-MB-361 is above 10 µM; with DLCL2, 4.82 µM; with Raji, above 10 µM; with SK-BR3 it was 0.24 µM; with A549, 3.13 µM; in the assay on MDA-MB-231, above 10 µM. Also, the GI50 is 0.011 µM in the assay on DOHH2 and 0.54 µM with MDA-MB-453.
With `C=CC(=O)N1CC[C@H](n2nc(-c3ccc(Oc4ccccc4)cc3)c3c(N)ncnc32)C1` [Compound 12, 1-((S)-3-(4-amino-3-(4-phenoxyphenyl)-1H-pyrazolo[3,4-d]pyrimidin-1-yl)pyrrolidin-1-yl)prop-2-en-1-one], on Btk (setting [2]), the half-maximal inhibitory concentration (IC50) is 1.9 nM.
The same measure, in the same setting: the result for `C=CC(=O)N1CC[C@@H](n2nc(-c3ccc(Oc4ccccc4)cc3)c3c(N)ncnc32)C1` [Compound 11, 1-((R)-3-(4-amino-3-(4-phenoxyphenyl)-1H-pyrazolo[3,4-d]pyrimidin-1-yl)pyrrolidin-1-yl)prop-2-en-1-one] reads 1.6 nM; that for `C=CC(=O)N1CCC(n2nc(-c3ccc(Oc4ccccc4)cc3)c3c(N)ncnc32)CC1` [Compound 9, 1-(4-(4-amino-3-(4-phenoxyphenyl)-1H-pyrazolo[3,4-d]pyrimidin-1-yl)piperidin-1-yl)prop-2-en-1-one], 3.6 nM.
For the molecule `C#CC(=O)N1CCCC(n2nc(-c3ccc(Oc4ccccc4)cc3)c3c(N)ncnc32)C1` (centres unmarked) [Compound 8, 1-(3-(4-amino-3-(4-phenoxyphenyl)-1H-pyrazolo[3,4-d]pyrimidin-1-yl)piperidin-1-yl)prop-2-yn-1-one], it took 0.72 nM to reach half-maximal inhibition against Btk (IC50).
Consider `C/C=C/C(=O)N1CCCC(n2nc(-c3ccc(Oc4ccccc4)cc3)c3c(N)ncnc32)C1` (centres unmarked) [Compound 5, (E)-1-(3-(4-amino-3-(4-phenoxyphenyl)-1H-pyrazolo[3,4-d]pyrimidin-1-yl)piperidin-1-yl)but-2-en-1-one], for which the “fold less potent than 4” value at Btk (Btk potency relative to compound 4) turned out to be 28 fold. For the same molecule, the IC50 on Btk (setting [2]) was 20 nM.
As for `CN(C)C/C=C/C(=O)N1CCC[C@@H](n2nc(-c3ccc(Oc4ccccc4)cc3)c3c(N)ncnc32)C1` [Compound 15, (E)-1-(3-(4-amino-3-(4-phenoxyphenyl)-1H-pyrazolo[3,4-d]pyrimidin-1-yl)piperidin-1-yl)-4-(dimethylamino)but-2-en-1-one], in the assay with DHL-6 cells, the “growth of DHL-6 cells” value is recorded as “inhibit growth”.
